In the supplement of paper PMC11451515:

Columns and labels:
Settings in all cases: 48 h
NOMO1 [1] = assay: cell viability relative to DMSO control; higher = less cytotoxic
In short: (§1)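 Library compounds in DMSO were pin-dosed into 1536-well plates (5 μl) holding NOMO1 or SEM (500 cells/well) or P12-Ichikawa (1000 cells/well) leukemia cells, across an 11-point threefold series of 47 μM to 0.79 nM. Each cell line had been adapted for at least four passages in each medium. CellTiter-Glo One luminescence was read after 48 h at 37°C. Viability is the per-plate percentage relative to DMSO wells, with cell-free wells as background.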

P12-Ichikawa [2] = assay: as above
In short: as §1

SEM cells [3] = assay: as above
In short: as §1

NOMO1 [4] = assay: AUC of viability dose-response curve (% viability x log10 dose units); higher = less sensitive
In short: (§2)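 Medium-adapted leukemia cells in 1536-well plates, at 500 or 1000 cells/well, were incubated for 48 h at 37°C with library compounds in DMSO at 11 threefold doses from 47 μM to 0.79 nM. CellTiter-Glo One luminescence normalised per plate to DMSO and cell-free wells was fitted with a four-parameter log-logistic model over log10 doses. Area under the curve was integrated from this fit by trapezoidal rule, with curves beyond full viability scaled and failed quality-control curves removed.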

P12-Ichikawa [5] = assay: as above
In short: as §2

SEM cells [6] = assay: as above
In short: as §2

COC1=NC(=NC(=C1N\C2=N\CCN2)Cl)C
cell viability [%]
Settings | NOMO1 [1] | P12-Ichikawa [2] | SEM cells [3]
HPLM + 10% dialyzed FBS, 0.000781 µM | 113 | 87 | 71.4
HPLM + 10% dialyzed FBS, 0.00234 µM | 94.9 | 90 | 88.7
HPLM + 10% dialyzed FBS, 0.00702 µM | 90.3 | 83.9 | 47.6
HPLM + 10% dialyzed FBS, 0.0211 µM | 93.6 | 98.2 | 91.8
HPLM + 10% dialyzed FBS, 0.0632 µM | 111 | 94.8 | 99.9
HPLM + 10% dialyzed FBS, 0.19 µM | 104 | 94.1 | 94.1
HPLM + 10% dialyzed FBS, 0.569 µM | 89.5 | 93.4 | 114
HPLM + 10% dialyzed FBS, 1.71 µM | 109 | 95 | 102
HPLM + 10% dialyzed FBS, 5.12 µM | 82 | 93.9 | 44.4
HPLM + 10% dialyzed FBS, 15.4 µM | 97.6 | 103 | 108
HPLM + 10% dialyzed FBS, 46.1 µM | 84.8 | 109 | 100
RPMI 5 mM glucose + 10% FBS, 0.000781 µM | 79.1 | 84.1 | 81
RPMI 5 mM glucose + 10% FBS, 0.00234 µM | 83.8 | 95.6 | 79.3
RPMI 5 mM glucose + 10% FBS, 0.00702 µM | 89.1 | 88.3 | 45
RPMI 5 mM glucose + 10% FBS, 0.0211 µM | 93.1 | 95.3 | 84
RPMI 5 mM glucose + 10% FBS, 0.0632 µM | 94 | 100 | 79.6
RPMI 5 mM glucose + 10% FBS, 0.19 µM | 100 | 94.9 | 83.5
RPMI 5 mM glucose + 10% FBS, 0.569 µM | 84.2 | 101 | 106
RPMI 5 mM glucose + 10% FBS, 1.71 µM | 91.8 | 95.5 | 81.9
RPMI 5 mM glucose + 10% FBS, 5.12 µM | 92.5 | 82.6 | 34.1
RPMI 5 mM glucose + 10% FBS, 15.4 µM | 86.5 | 93.4 | 103
RPMI 5 mM glucose + 10% FBS, 46.1 µM | 90 | 107 | 99.2
RPMI 5 mM glucose + 10% dialyzed FBS, 0.000781 µM | 86.2 | 83.3 | 74.6
RPMI 5 mM glucose + 10% dialyzed FBS, 0.00234 µM | 85.8 | 91.6 | 80
RPMI 5 mM glucose + 10% dialyzed FBS, 0.00702 µM | 82.8 | 83.6 | 46.6
RPMI 5 mM glucose + 10% dialyzed FBS, 0.0211 µM | 85 | 95.1 | 102
RPMI 5 mM glucose + 10% dialyzed FBS, 0.0632 µM | 95.6 | 89.6 | 104
RPMI 5 mM glucose + 10% dialyzed FBS, 0.19 µM | 94 | 87.7 | 104
RPMI 5 mM glucose + 10% dialyzed FBS, 0.569 µM | 91.3 | 91.4 | 101
RPMI 5 mM glucose + 10% dialyzed FBS, 1.71 µM | 86.5 | 88.6 | 101
RPMI 5 mM glucose + 10% dialyzed FBS, 5.12 µM | 80.3 | 84.5 | 49.6
RPMI 5 mM glucose + 10% dialyzed FBS, 15.4 µM | 89.5 | 94 | 98.7
RPMI 5 mM glucose + 10% dialyzed FBS, 46.1 µM | 85.3 | 87.5 | 113

AUC of viability dose-response curve
Settings | NOMO1 [4] | P12-Ichikawa [5] | SEM cells [6]
HPLM + 10% dialyzed FBS | 446 | 413 | 420
RPMI 5 mM glucose + 10% FBS | 429 | 450 | 380
RPMI 5 mM glucose + 10% dialyzed FBS | 418 | 424 | 426

C[C@H]1[C@H](NC(=O)/C(=N/OC(C)(C)C(=O)O)c2csc(N)n2)C(=O)N1[S+](=O)([O-])O
cell viability [%]
Settings | NOMO1 [1] | P12-Ichikawa [2] | SEM cells [3]
HPLM + 10% dialyzed FBS, 0.000781 µM | 98.5 | 108 | 89.9
HPLM + 10% dialyzed FBS, 0.00234 µM | 98 | 116 | 102
HPLM + 10% dialyzed FBS, 0.00702 µM | 98.9 | 109 | 100
HPLM + 10% dialyzed FBS, 0.0211 µM | 111 | 102 | 99.3
HPLM + 10% dialyzed FBS, 0.0632 µM | 108 | 106 | 95.2
HPLM + 10% dialyzed FBS, 0.19 µM | 110 | 117 | 103
HPLM + 10% dialyzed FBS, 0.569 µM | 113 | 111 | 100
HPLM + 10% dialyzed FBS, 1.71 µM | 88.2 | 105 | 93.1
HPLM + 10% dialyzed FBS, 5.12 µM | 102 | 109 | 104
HPLM + 10% dialyzed FBS, 15.4 µM | 85.3 | 95.3 | 107
HPLM + 10% dialyzed FBS, 46.1 µM | 90.4 | 103 | 86.1
RPMI 5 mM glucose + 10% FBS, 0.000781 µM | 105 | 99.3 | 98.7
RPMI 5 mM glucose + 10% FBS, 0.00234 µM | 98.3 | 102 | 103
RPMI 5 mM glucose + 10% FBS, 0.00702 µM | 101 | 97.1 | 106
RPMI 5 mM glucose + 10% FBS, 0.0211 µM | 108 | 102 | 106
RPMI 5 mM glucose + 10% FBS, 0.0632 µM | 107 | 101 | 107
RPMI 5 mM glucose + 10% FBS, 0.19 µM | 105 | 106 | 88.3
RPMI 5 mM glucose + 10% FBS, 0.569 µM | 107 | 101 | 104
RPMI 5 mM glucose + 10% FBS, 1.71 µM | 104 | 110 | 110
RPMI 5 mM glucose + 10% FBS, 5.12 µM | 92.3 | 98.4 | 104
RPMI 5 mM glucose + 10% FBS, 15.4 µM | 108 | 93.4 | 101
RPMI 5 mM glucose + 10% FBS, 46.1 µM | 103 | 97.3 | 79.7
RPMI 5 mM glucose + 10% dialyzed FBS, 0.000781 µM | 94.2 | 81.3 | 106
RPMI 5 mM glucose + 10% dialyzed FBS, 0.00234 µM | 101 | 101 | 107
RPMI 5 mM glucose + 10% dialyzed FBS, 0.00702 µM | 94.1 | 101 | 121
RPMI 5 mM glucose + 10% dialyzed FBS, 0.0211 µM | 92.3 | 102 | 113
RPMI 5 mM glucose + 10% dialyzed FBS, 0.0632 µM | 97.3 | 110 | 110
RPMI 5 mM glucose + 10% dialyzed FBS, 0.19 µM | 94.7 | 102 | 129
RPMI 5 mM glucose + 10% dialyzed FBS, 0.569 µM | 91.7 | 101 | 114
RPMI 5 mM glucose + 10% dialyzed FBS, 1.71 µM | 99.2 | 93.8 | 113
RPMI 5 mM glucose + 10% dialyzed FBS, 5.12 µM | 85.2 | 93.3 | 105
RPMI 5 mM glucose + 10% dialyzed FBS, 15.4 µM | 91.1 | 99.4 | 64.8
RPMI 5 mM glucose + 10% dialyzed FBS, 46.1 µM | 83.3 | 92.3 | 88.2

AUC of viability dose-response curve
Settings | NOMO1 [4] | P12-Ichikawa [5] | SEM cells [6]
HPLM + 10% dialyzed FBS | 455 | 470 | 468
RPMI 5 mM glucose + 10% FBS | 475 | 471 | 471
RPMI 5 mM glucose + 10% dialyzed FBS | 445 | 467 | 450
